According to patent US20130072430A1, “METHODS FOR TREATMENT OR PROPHYLAXIS OF KIDNEY OR LIVER DYSFUNCTION” (NPS PHARMACEUTICALS, INC., priority 2010, published 2013):

System: Human patients with short bowel syndrome
Test: Example 1: liver diagnostic biomarkers (total bilirubin, ALT, AST, ALP) in short bowel syndrome patients, every four weeks for 24 weeks
Format: in vivo
Parameters: AST (SGOT) Change from Baseline, Median / ALT (SGPT), Median / TOTAL BILIRUBIN, Median / TOTAL BILIRUBIN Change from Baseline, Median / ALT (SGPT) Change from Baseline, Median / AST (SGOT), Median: unit not given here
Settings: for ALKALINE PHOSPHATASE change from baseline: patients in range, n(%) / ALT (SGPT) change from baseline: patients in range, n(%) / AST (SGOT) change from baseline: patients in range, n(%) / TOTAL BILIRUBIN change from baseline: patients in range, n(%): Week 4
Experimental: Human patients with short bowel syndrome were divided into three groups: a control group (16 total individuals) to receive placebo, an experimental group (35 total individuals) to receive teduglutide at 0.05 mg/kg/day throughout the study, and an experimental group (32 total individuals) to receive teduglutide at 0.1 mg/kg/day throughout the study. Patients were treated by subcutaneous injection of placebo or the appropriate dose of teduglutide. As individuals with short bowel syndrome are likely to experience associated liver and kidney disease, known biomarkers of liver and kidney function were monitored every four weeks, for 24 weeks. The liver biomarkers tested included total bilirubin, ALT and AST and ALP. The kidney biomarkers tested included urea nitrogen, creatinine and GFR. Before administration of placebo or teduglutide, diagnostic biomarker levels were tested to establish a baseline for each individual.
To visualize the effect of GLP-2 on the levels of the diagnostic biomarkers, the average change from baseline was calculated for the placebo and teduglutide treated groups for each visit after a baseline was established. The average change from baseline of each group is depicted in FIGS. […]. The numerical figures for each diaanostic biomarker at each time point are depicted in Table 1.
The efficacy of teduglutide in treating liver dysfunction was further tested by sorting the data into two groups: individuals with abnormal baseline values of liver diagnostic biomarkers; and individuals with normal baseline values of liver diagnostic biomarkers. The mean diagnostic biomarker change from baseline for these two groups is shown for ALT (FIGS. 5 and 6) and AST (FIGS. 7 and 8). […] These changes were significant when compared to baseline levels for the group, and when compared to placebo (see FIGS. 5 and 7).
The raw data for this sorting is reproduced in Table 2 below.

[1] = range <−5%, teduglutide 0.05 mg/kg/day
[2] = range <−5%, teduglutide 0.1 mg/kg/day
[3] = range >5%, teduglutide 0.05 mg/kg/day
[4] = range >5%, teduglutide 0.1 mg/kg/day
[5] = range −5%<= and <=5%, teduglutide 0.05 mg/kg/day
[6] = range −5%<= and <=5%, teduglutide 0.1 mg/kg/day

SMILES: CC[C@H](C)[C@H](NC(=O)[C@H](Cc1ccccc1)NC(=O)[C@H](CC(=O)O)NC(=O)[C@H](CCCNC(=N)N)NC(=O)[C@H](C)NC(=O)[C@H](C)NC(=O)[C@H](CC(C)C)NC(=O)[C@H](CC(N)=O)NC(=O)[C@H](CC(=O)O)NC(=O)[C@H](CC(C)C)NC(=O)[C@@H](NC(=O)[C@@H](NC(=O)[C@H](CC(N)=O)NC(=O)[C@H](CCSC)NC(=O)[C@H](CCC(=O)O)NC(=O)[C@H](CC(=O)O)NC(=O)[C@H](CO)NC(=O)[C@H](Cc1ccccc1)NC(=O)[C@H](CO)NC(=O)CNC(=O)[C@H](CC(=O)O)NC(=O)CNC(=O)[C@@H](N)Cc1c[nH]cn1)[C@@H](C)O)[C@@H](C)CC)C(=O)N[C@@H](CC(N)=O)C(=O)N[C@@H](Cc1c[nH]c2ccccc12)C(=O)N[C@@H](CC(C)C)C(=O)N[C@H](C(=O)N[C@@H](CCC(N)=O)C(=O)N[C@H](C(=O)N[C@@H](CCCCN)C(=O)N[C@H](C(=O)N[C@H](C(=O)N[C@@H](CC(=O)O)C(=O)O)[C@@H](C)O)[C@@H](C)CC)[C@@H](C)O)[C@@H](C)CC [teduglutide]
- AST (SGOT), Median (0.10 mg/kg/day, DW20): 30.0
- TOTAL BILIRUBIN Change from Baseline, Mean (SD) (0.10 mg/kg/day, DW20): −2.7 (14.42)
- TOTAL BILIRUBIN Change from Baseline, Median (0.10 mg/kg/day, DW20): 0.0
- TOTAL BILIRUBIN, Mean (SD) (0.10 mg/kg/day, DW20): 10.4 (10.13)
- TOTAL BILIRUBIN, Median (0.10 mg/kg/day, DW20): 7.0
- ALKALINE PHOSPHATASE Change from Baseline, Mean (SD) (0.10 mg/kg/day, DW24): −18.9 (67.08)
- ALKALINE PHOSPHATASE Change from Baseline, Median (0.10 mg/kg/day, DW24): −21.0
- ALKALINE PHOSPHATASE, Mean (SD) (0.10 mg/kg/day, DW24): 136.7 (85.50)
- ALKALINE PHOSPHATASE, Median (0.10 mg/kg/day, DW24): 105.0
- ALT (SGPT) Change from Baseline, Mean (SD) (0.10 mg/kg/day, DW24): −7.3 (32.62)
- ALT (SGPT) Change from Baseline, Median (0.10 mg/kg/day, DW24): −4.0
- ALT (SGPT), Mean (SD) (0.10 mg/kg/day, DW24): 42.2 (27.28)
- ALT (SGPT), Median (0.10 mg/kg/day, DW24): 37.0
- AST (SGOT) Change from Baseline, Mean (SD) (0.10 mg/kg/day, DW24): −4.8 (23.34)
- AST (SGOT) Change from Baseline, Median (0.10 mg/kg/day, DW24): −3.0
- AST (SGOT), Mean (SD) (0.10 mg/kg/day, DW24): 35.3 (18.69)
- AST (SGOT), Median (0.10 mg/kg/day, DW24): 32.0
- TOTAL BILIRUBIN Change from Baseline, Mean (SD) (0.10 mg/kg/day, DW24): −2.4 (12.73)
- TOTAL BILIRUBIN Change from Baseline, Median (0.10 mg/kg/day, DW24): 0.0
- TOTAL BILIRUBIN, Mean (SD) (0.10 mg/kg/day, DW24): 11.3 (12.28)
- TOTAL BILIRUBIN, Median (0.10 mg/kg/day, DW24): 9.0
- ALKALINE PHOSPHATASE change from baseline: patients in range, n(%) [1]: 21(60.0%)
- ALT (SGPT) change from baseline: patients in range, n(%) [1]: 22(62.9%)
- AST (SGOT) change from baseline: patients in range, n(%) [1]: 21(60.0%)
- TOTAL BILIRUBIN change from baseline: patients in range, n(%) [1]: 12(34.3%)
- ALKALINE PHOSPHATASE change from baseline: patients in range, n(%) [2]: 17(53.1%)
- ALT (SGPT) change from baseline: patients in range, n(%) [2]: 20(62.5%)
- AST (SGOT) change from baseline: patients in range, n(%) [2]: 17(53.1%)
- TOTAL BILIRUBIN change from baseline: patients in range, n(%) [2]: 16(50.0%)
- ALKALINE PHOSPHATASE change from baseline: patients in range, n(%) [3]: 3(8.6%)
- ALT (SGPT) change from baseline: patients in range, n(%) [3]: 8(22.9%)
- AST (SGOT) change from baseline: patients in range, n(%) [3]: 5(14.3%)
- TOTAL BILIRUBIN change from baseline: patients in range, n(%) [3]: 8(22.9%)
- ALKALINE PHOSPHATASE change from baseline: patients in range, n(%) [4]: 11(34.4%)
- ALT (SGPT) change from baseline: patients in range, n(%) [4]: 10(31.3%)
- AST (SGOT) change from baseline: patients in range, n(%) [4]: 10(31.3%)
- TOTAL BILIRUBIN change from baseline: patients in range, n(%) [4]: 12(37.5%)
- ALKALINE PHOSPHATASE change from baseline: patients in range, n(%) [5]: 6(17.1%)
- ALT (SGPT) change from baseline: patients in range, n(%) [5]: 0(0.0%)
- AST (SGOT) change from baseline: patients in range, n(%) [5]: 2(5.7%)
- TOTAL BILIRUBIN change from baseline: patients in range, n(%) [5]: 6(17.1%)
- ALKALINE PHOSPHATASE change from baseline: patients in range, n(%) [6]: 4(12.5%)
- ALT (SGPT) change from baseline: patients in range, n(%) [6]: 2(6.3%)
